Source: paper PMC6801405, “Discovery of 3-Arylquinoxaline Derivatives as Potential Anti-Dengue Virus Agents” (International Journal of Molecular Sciences, 2019)

How the values were obtained:
Assay type in all cases: cell-based, dengue virus
DENV [1] = experiment: DENV RNA levels by RT-qPCR in DENV-infected Huh-7 cells; details: 0.5, 1, 5 and 10 μM, three days
Description: (§1) To further confirm the anti-DENV effect of compound 19a, we treated compound 19a at indicated concentrations in Huh-7 cells for three days.
Total cellular RNA samples were extracted after three days of compound treatment through a Total RNA Miniprep Purification Kit (GeneMark Biolab, Taiwan) following the manufacturer’s instructions, and then transcribed to complementary DNA (cDNA) with Moloney murine leukemia virus (M-MLV) reverse transcriptase (Promega, USA). The levels of DENV-2 replication and COX-2 were analyzed by RT-PCR as described previously with the following specific primers: a forward primer, 5′–[…] AGC–3′, and a reverse primer, 5′–[…]–3′, targeting the DENV-2 NS5 gene 44. DENV-2 and COX-2 RNA levels were normalized to the cellular glyceraldehyde-3-phosphate dehydrogenase (GAPDH) RNA level of each sample.
Figure 2 Inhibition of dengue virus (DENV) RNA expression in DENV-infected Huh-7 cells by 19a. Huh-7 cells were treated with 0.5, 1, 5, and 10 μM 19a for three days. Total RNA was extracted and quantified DENV RNA levels by RT-qPCR. DENV RNA expression was normalized by cellular glyceraldehyde-3-phosphate dehydrogenase (GAPDH) mRNA. Treatment with 0.1% dimethyl sulfoxide (DMSO) served as a mock control. The results are expressed as the means ± standard deviations (SD) of triplicate experiments.

DENV [2] = experiment: Exogenous COX-2 (pCMV-COX-2-Myc) overexpression rescue of DENV replication in Huh-7 cells; details: 1 μM; pCMV-COX-2-Myc transfected Huh-7 cells
Description: In a previous study, Lin et al. reported that induction of COX-2 could suppress DENV replication. To determine whether compound 19a had impact on COX-2 protein and mRNA expression in Huh-7 cells, we treated Huh-7 cells with 0.5 to 5 μM of 19a. […] To characterize whether the 19a-mediated downregulation of COX-2 expression and its catalytic activity was involved in the suppression of DENV replication, we overexpressed exogenous COX-2 to evaluate the inhibitory activity of 19a on DENV replication. […] Consistently, the exogenous expression of COX-2 attenuated the inhibitory effect of 19a on the non-structural 2B (NS2B) protein levels, as analyzed by Western blotting.
Huh-7-DV-Fluc cells were seeded in 24-well plates at a density of 2 × 10^4 cells per well, and treated with the 3-arylquinoxaline compounds at two concentrations (1 and 10 μM) or 0.1% DMSO as control. […] After three days, protein and RNA levels were analyzed by Western blotting with a specific antibody as previously described respectively.
Figure 4 Inhibitory effect of 19a on DENV-induced cyclooxygenase-2 (COX-2) expression in Huh-7 cells. […] The results are expressed as the means ± standard deviations (SD) of triplicate experiments.

DENV [3] = experiment: DENV protein synthesis by Western blotting in Huh-7 cells; details: 0.5, 1, 2.5 and 5 μM, three days
Description: as §1
Huh-7 cells were seeded in 24-well plates at a density of 5 × 10^4 cells per well overnight and treated with indicated reagent at proper concentrations for three days. Cells were washed with cold phosphate-buffered saline (PBS) and lysed by radioimmunoprecipitation assay (RIPA) lysis buffer (50 mM Tris-HCl, pH 7.5, 150 mM NaCl, 1% Nonidet P-40, 2 mM ethylenediaminetetraacetic acid (EDTA), 1 mM ethylene glycol bis(2-aminoethyl)tetraacetic acid (EGTA), 1 mM NaVO3, 10 mM NaF, 1 mM dithiothreitol (DTT), 1 mM phenylmethylsulfonyl fluoride (PMSF), 25 μg/mL aprotinin, and 25 μg/mL leupeptin) and stored at −20 °C. The protein concentration was determined by the Bradford method. Then, 10-μg protein samples were separated by 10% SDS-PAGE and transferred onto a polyvinylidene fluoride (PVDF) membrane. The membrane was blocked with 5% non-fat dried milk and incubated with specific antibodies against GAPDH (1:10000, Genetex, Irvine, CA, USA) and COX-2 (1:1000; Cayman Chemical, Ann Arbor, ML, USA). […] The blotting signal was developed using an enhanced chemiluminescence (ECL) detection kit (PerkinElmer, Waltham, MA, USA) and was counted by the software Quantity One (Bio-Rad, Hercules, CA, USA). […]

Which results are given for `COc1ccc(-c2nc3ccccc3nc2C(O)c2ccccc2)cc1` (stereo not drawn) [Compound 19a, [3-(4-Methoxyphenyl)quinoxalin-2-yl](phenyl)methanol]?
DENV RNA replication (RT-qPCR) (DENV [1]): dose-dependently reduced; viral RNA level reduced by compound upon increasing exogenous COX-2-Myc expression (DENV [2]): gradually rescued; DENV protein synthesis (Western blotting) (DENV [3]): dose-dependently reduced
